According to patent publication US20100234417A1, “THYROTROPIN RELEASING HORMONE RECEPTOR-OREXIN RECEPTOR HETERO-DIMERS/-OLIGOMERS” (DIMERIX BIOSCIENCE PTY LTD., priority 2006, published 2010):
Ends that are not written are not given here.

Columns and labels:
OxR2 = molecular target: T1, OxR2 (Homo sapiens, UniProt O43614); experiment: BRET/eBRET beta-arrestin 2 recruitment to OxR2/Rluc or OxR2/Rluc8 without IG3 (pcDNA3); assay type: cell-based; conditions: OxR2/Rluc8 + barr2/Venus + pcDNA3; FIG. 18
T1 construct: expressed in transfected cells; host or cells: HEK293 (HEK293FT)
T1 sequence (O43614 1-444): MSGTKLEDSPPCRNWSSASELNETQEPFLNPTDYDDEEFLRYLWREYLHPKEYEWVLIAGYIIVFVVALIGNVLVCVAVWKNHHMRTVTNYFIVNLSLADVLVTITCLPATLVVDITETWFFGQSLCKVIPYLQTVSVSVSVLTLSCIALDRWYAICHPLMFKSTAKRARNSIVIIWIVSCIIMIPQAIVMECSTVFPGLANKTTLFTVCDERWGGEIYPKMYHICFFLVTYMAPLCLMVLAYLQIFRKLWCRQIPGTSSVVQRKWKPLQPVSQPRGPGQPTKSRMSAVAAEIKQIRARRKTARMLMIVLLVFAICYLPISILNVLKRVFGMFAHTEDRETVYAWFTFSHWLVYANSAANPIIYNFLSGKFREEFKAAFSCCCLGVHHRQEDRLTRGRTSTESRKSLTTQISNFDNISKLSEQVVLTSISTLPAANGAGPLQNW
Procedure: (§1) Briefly, referring to FIGS. 1 to 3, the IGs are provided in the form of the two receptors (TRHR and OxR). One of the two is attached to an RC (IG1-RC1, IG3). A second IG (IG2-RC2) is derived from a molecule that interacts with the receptors upon ligand binding (e.g. beta-arrestin, or a mutant thereof).
Cells were seeded in 6-well plates at a density of approximately 630,000 cells/well (HEK293FT) or approximately 150,000 cells/well (COS-7) and maintained at 37° C., 5% CO2 in Complete Media (DMEM containing 0.3 mg/ml glutamine, 100 IU/ml penicillin and 100 μg/ml streptomycin (Gibco)) supplemented with 10% fetal calf serum (FCS; Gibco). […] Filtered light emissions were sequentially measured for 3-5 s in each of the ‘donor wavelength window’ (400-475 nm) and ‘acceptor wavelength window’ (>500 nm for EGFP or 520-540 nm for EYFP, Topaz (TYFP) or Venus). […] In this case, data are shown as ‘fluorescence/luminescence’ being the ratio of light emission through the ‘acceptor wavelength window’ over the 400-475 nm emission for a particular cell sample. Unless otherwise stated, BRET signals were measured in 96-well microplates.
Referring now to FIG. 18, eBRET signals were measured from cells transiently co-expressing OxR2/Rluc8 and barr2/Venus either with HA-TRHR or pcDNA3.

[1] = system: thyrotropin releasing hormone receptor/orexin receptor hetero-dimer/-oligomer (TRHR with OxR2); experiment: eBRET/BRET detection of TRHR-OxR2 association: TRHR/Rluc + tagged beta-arrestin + OxR2 as IG3 in HEK293 cells; assay type: cell-based
Procedure: as §1
Cells were seeded in 6-well plates at a density of approximately 630,000 cells/well (HEK293FT) or approximately 150,000 cells/well (COS-7) and maintained at 37° C., 5% CO2 in Complete Media (DMEM containing 0.3 mg/ml glutamine, 100 IU/ml penicillin and 100 μg/ml streptomycin (Gibco)) supplemented with 10% fetal calf serum (FCS; Gibco). Transient transfections were carried out 24 h after seeding using GeneJuice (Novagen) or Metafectene (Biontex) according to manufacturer instructions. 24 h post-transfection, cells were washed with PBS, detached using 0.05% trypsin/0.53 mM EDTA, resuspended in HEPES-buffered phenol red free Complete Media containing 5% FCS and added to a poly-L-lysine-coated white microplate (Nunc). 48 h post-transfection, eBRET assays were carried out following pre-incubation of cells with EnduRen™ (Promega) at a final concentration of 30-40 μM, at 37° C., 5% CO2 for 2 h. For original BRET studies, the HEPES-buffered phenol red free Complete Media was replaced with PBS and coelenterazine h (Molecular Probes) added to a final concentration of 5 μM immediately prior to commencing the assay. […] Filtered light emissions were sequentially measured for 3-5 s in each of the ‘donor wavelength window’ (400-475 nm) and ‘acceptor wavelength window’ (>500 nm for EGFP or 520-540 nm for EYFP, Topaz (TYFP) or Venus). The BRET signal observed between interacting proteins is normalized by subtracting the background BRET ratio. […] In the following examples, the first calculation will be used, unless the signal is described as the ‘ligand-induced BRET ratio’. […] In this case, data are shown as ‘fluorescence/luminescence’ being the ratio of light emission through the ‘acceptor wavelength window’ over the 400-475 nm emission for a particular cell sample. Unless otherwise stated, BRET signals were measured in 96-well microplates. […]
Cells not pretreated with antagonist were pretreated with PBS instead for the same amount of time. […]

[2] = HEK293, TRHR/Rluc + barr2/Venus + OxR2, ligand 10^−6M, FIG. 4

| Compound | ligand-induced eBRET signal (OxR2) | eBRET signal [1, 2] | time for eBRET signal to reach its level [1, 2] | time for eBRET signal to reach plateau ([1]; TRHR/Rluc + HA-OxR2 + EGFP/barr1 or EGFP/barr2, FIG. 7) | time for eBRET signal to reach plateau ([1]; TRHR/Rluc + OxR2 + EGFP/barr1, FIG. 8) | time for eBRET signal to reach plateau ([1]; TRHR/Rluc + OxR2 + EGFP/barr1R169E, FIG. 8) [min] | time for eBRET signal to reach plateau ([1]; TRHR/Rluc + OxR2 + EGFP/barr1 or EGFP/barr2, FIG. 5) | eBRET signal ([1]; TRHR/Rluc + barr2/Venus + OxR2, 10^−6M OxA, FIG. 6) | dose-response Hill slope ([1]; TRHR/Rluc + barr2/Venus + OxR2, FIG. 12) |
| --- | --- | --- | --- | --- | --- | --- | --- | --- | --- |
| NC(=O)[C@@H]1CCCN1C(=O)[C@H](Cc1cnc[nH]1)NC(=O)[C@@H]1CCC(=O)N1 [TRH, pGlu-His-Pro-NH2] | No ligand-induced eBRET signal was observed |  |  |  |  |  |  |  |  |
| OxA: orexin A; known orexin receptor modulator, used as IG3 ligand (modulator) (QPLPDCCRQKTCSCRLYELLHGAGNHAAGILTL; ends and bridges not checked; cysteine pairing not given here; UniProt O43612 34-66, looked up) |  | 0.07-0.08 | up to 30 minutes | more than 10 minutes | more than 10 minutes | ≤ 20 | more than 10 minutes | eBRET signal was observed | greater than 1 |
